Assay results: PMC4545774, “Identification of inhibitors that target dual-specificity phosphatase 5 provide new insights into the binding requirements for the two phosphate pockets” (BMC Biochemistry, 2015)
Values joined by “and” are separate entries in the source; they are usually repeats but may differ in a detail not shown here. Identical values can stand only once. “Also recorded” adds a separate entry of the source. Like-named read-outs stand apart in the source and are kept apart here. Blank lines part the entries; values can stand above or below the compound they belong to.

What was measured:
DUSP5 PD(C263S) = system: T1, DUSP5 PD(C263S); assay: NMR binding assay (2D 1H-15N HSQC); parameters: species or system human; conditions: 250 μM RR505 or 500 μM CSD^3_2320, pH 6.8
T1 construct: a C-terminal phosphatase domain (PD); hexa-histidine (N); made in house; host or cells: E. coli BL21(DE3)
Experimental: NMR samples of DUSP5 PD(C263S) were prepared for 2D ^1H-^15N HSQC (heteronuclear single quantum coherence) spectral titration studies. The ^15 N-labeled DUSP5 PD(C263S) protein was concentrated using an Amicon Ultra-4 centrifugal device (Millipore) to 600 μM. NMR samples were prepared with the following conditions for RR505: 250 μM RR505, 250 μM DUSP5 PD(C263S), 10 % D2O, 50 mM potassium phosphate, 100 mM KCl, and 2 mM DTT at pH 6.8 and for CSD^3-2320: 0 or 500 μM CSD^3-2320, 500 μM DUSP5 PD(C263S), 10 % D2O, 50 mM potassium phosphate, 100 mM KCl, and 2 mM DTT at pH 6.8. NMR experiments were performed on a 500 MHz Varian NMR System using a triple resonance probe with z-axis gradients at 25 °C.

DUSP5 PD(WT) [1] = biological target: T2, DUSP5 PD(WT) (Homo sapiens, UniProt Q16690); assay: p-nitrophenol phosphate (pNPP) phosphatase activity / IC50 assay; assay type: biochemical; conditions: for effect of detergent on inhibition: presence vs absence of 0.5 % Triton X-100
T2 construct: hexa-histidine (N); made in house; host or cells: E. coli BL21(DE3)
T2 sequence (Q16690 178-319 limits assumed): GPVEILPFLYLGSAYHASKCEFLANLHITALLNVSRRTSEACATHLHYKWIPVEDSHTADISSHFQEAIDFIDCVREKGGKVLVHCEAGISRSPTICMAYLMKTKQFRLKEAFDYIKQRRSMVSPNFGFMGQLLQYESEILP
Description: To measure enzymatic activity of the DUSP5 PD and the inhibitory capacity of selected molecules, an in vitro phosphatase assay was developed based on previous studies. In this assay, DUSP5 PD will dephosphorylate the substrate p-nitrophenol phosphate (pNPP, Sigma Aldrich), yielding p-nitrophenolate, which absorbs at 405 nm with an extinction coefficient of 18,000 M^−1 cm^−1.
Thus, an increase in absorbance at 405 nm corresponds to the turnover of pNPP to p-nitrophenolate. The assay was initially optimized in 1 mL quartz cuvettes, then was subsequently optimized for and validated in a 96-well plate format. All IC50 values were obtained using the 96-well plate assay format (see below). The assay buffer contained 100 mM Tris, 100 mM sodium chloride, 5 mM magnesium chloride, and 1 mM DTT at pH 7.5. The pNPP substrate was prepared as a 50 mM stock by dissolving the solid substrate in assay buffer. The DUSP5 PD and pNPP were assayed initially in a cuvette (1 mL total volume) and initial velocities were fitted to the Michaelis-Menten equation:1 v=VmaxS/Km+S where v is the initial velocity, Vmax is the maximum velocity, Km is the Michaelis constant, and [S] is the concentration of pNPP. Data were fitted using a nonlinear least squares fit to eq. 1, with GraphPad Prism 6 software.
For the 96-well plate validation assay, sodium orthovanadate (Sigma Aldrich) was utilized as a positive control for inhibition at a final concentration of 10 μM, to completely block DUSP5(WT) enzymatic activity. All plate assays were performed in standard 96-well clear bottom plates (Thermo Scientific Nunc) with a total assay volume of 200 μL, using a SpectraMax M5 Microplate Reader (Molecular Devices). The plate validation assay was performed with replicate columns of positive control wells, negative control wells and blank wells. Blank columns contained only buffer and pNPP. Negative control (uninhibited) contained buffer, pNPP, and DUSP5 PD(WT); and, positive control contained the same components, but also contained 10 μM sodium orthovanadate. The plate was then shaken and allowed to equilibrate in the spectrophotometer at 25 °C for 30 min. After incubation, 4 μL of a 50 μM enzyme stock was dispensed into appropriate wells utilizing a single-channel pipette. This produced a final enzyme concentration of 1 μM. Before a read was taken, the plate was shaken for five seconds. […] The endpoint reading was subsequently taken at 90 min after initiation of reaction.
IC50 values were obtained using the assay described above, in 96 well plates. The maximum inhibitor concentration screened in any plate was […] and the minimum screened concentration was 1 μM. The IC50 plate was designed so that the first column of wells served as blanks, with wells containing only buffer and substrate. The second column of wells functioned as the plate negative control, with each well containing buffer, substrate and enzyme. The remaining wells in the plate contained buffer, substrate, enzyme, and varying amounts of inhibitor, with inhibitor concentration increasing from left to right across the plate. Data points were collected at a minimum in triplicate, and inhibitor concentrations were chosen to provide data equally spread on a logarithmic scale. The composition of buffer and the concentrations of substrate and enzyme utilized were identical to those in the plate validation assay. After initiation and shaking, a ten-minute kinetic read was taken.
For each plate assayed, the slope values for all negative control wells were averaged and the measured value considered representative of full enzymatic activity.

panel of 21 phosphatases = assay: Screen against a panel of 21 phosphatases; assay type: biochemical; conditions: at up to 30 μM
[2] = Nephelometry (aggregation in solution); assay type: physicochemical; conditions: 10-100 μM, pH 7.5 buffer; for aggregation: nephelometry
Experimental: Nephelometry is a technique for measuring the relative aggregation of particles in solution, based on the light-scattering properties of molecular aggregates. We performed nephelometry to explore the ability of the chemicals studied herein to form aggregates, which can lead to artifactual inhibition effects. Compounds were tested for aggregation in 96-well plates using a buffer containing 100 mM Tris base, 100 mM sodium chloride, and 5 mM magnesium chloride at pH 7.5. Each compound analyzed in these experiments contained concentrations of compound ranging from 10-100 μM, recorded in quadruplet. Each plate was analyzed at two separate gain values of 52 and 72. Data were collected using a BMG NEPHELOstar Plus, equipped with a 635 nm laser.

full length DUSP5 = biological target: T3, full length DUSP5 (Homo sapiens, UniProt Q16690); assay: ERK dephosphorylation assay (full-length DUSP5, pERK2 substrate, Western blot); assay type: biochemical; conditions: full length DUSP5, pERK2 as substrate
T3 construct: in the more biologically relevant assay with full length DUSP5 and using pERK2 as substrate; made in house
T3 sequence (Q16690 1-384): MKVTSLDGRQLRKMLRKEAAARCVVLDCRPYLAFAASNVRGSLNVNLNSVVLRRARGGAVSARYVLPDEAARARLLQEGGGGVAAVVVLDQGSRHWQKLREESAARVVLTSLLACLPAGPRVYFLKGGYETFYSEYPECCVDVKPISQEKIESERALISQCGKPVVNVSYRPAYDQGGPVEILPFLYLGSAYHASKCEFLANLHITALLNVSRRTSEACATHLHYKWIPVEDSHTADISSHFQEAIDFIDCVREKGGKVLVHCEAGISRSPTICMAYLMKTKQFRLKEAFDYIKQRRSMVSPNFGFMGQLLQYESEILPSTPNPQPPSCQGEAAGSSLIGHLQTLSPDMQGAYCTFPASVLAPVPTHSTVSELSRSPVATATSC
Experimental: For this assay, 10 ng of GST-tagged recombinant phosphorylated ERK2 (R&D Systems, 1230-KS) was incubated with and without the indicated DUSP5 proteins (0.5 nM final concentration) for 15 min at room temperature, with or without the indicated drugs. The reactions were halted with 2x Laemmli sample buffer and subjected to SDS-PAGE. The proteins were transferred to polyvinylidene difluoride (PVDF) and immunoblotted using antibodies to pERK (Cell Signaling Tech., #9106) and total ERK, which includes both phosphorylated and unphosphorylated ERK1 and ERK2 (Cell Signaling Tech., #9102). Bound antibodies were visualized using horseradish peroxidase-linked anti-mouse IgG (Cell Signaling Tech, #7076S) and anti-rabbit IgG (Cell Signaling Tech, #7074S), respectively, and ECL reagents (Pierce, #34708) according to the manufacturer’s protocol. For calculating IC50 values, gel bands were imaged by chemiluminescence with either film or digital image capture by a FluorChem HD2 imager (Alpha Innotech). Density of each band was quantified with ImageJ software by using the gel analysis tool. Relative values of phosphorylated ERK present for each drug concentration treatment compared to pERK only controls were calculated. These relative values were then used to obtain IC50 values with GraphPad Prism 6 software. […]

DUSP5 PD(WT) [3] = biological target: T2, DUSP5 PD(WT); assay: p-nitrophenol phosphate (pNPP) phosphatase activity / IC50 assay; assay type: biochemical; conditions: 1 mL cuvettes, pNPP substrate
[4] = pNPP as substrate, Michaelis-Menten fit, 1 mL cuvette

binding by HSQC cross-peak shifts (DUSP5 PD(C263S)): direct binding
binding by HSQC cross-peak shifts (DUSP5 PD(C263S); listed as CSD3_2320): binding
IC50 (DUSP5 PD(WT) [1]; phosphatase domain alone, pNPP as substrate, read-out: IC50): 32700 µM and 33000 µM
aggregation ([2]; listed as CSD3_2320): no tendency
IC50 (full length DUSP5; read-out: IC50 (mean)): 33 µM
IC50 (full length DUSP5; read-out: IC50 (range)): 8 to 96 µM
SMILES: O=S(=O)(O)c1cc(O)c2c(S(=O)(=O)O)cccc2c1 [CSD^3_2320]
inhibition of panel phosphatases (panel of 21 phosphatases): not inhibit any of them significantly
aggregation [2]: does not aggregate; also recorded: no propensity to aggregate; also recorded: no tendency to aggregate

effect of detergent on inhibition (DUSP5 PD(WT) [1]): no detergent-effect
aggregation [2]: do not appear to form aggregates
SMILES: O=S(=O)(O)c1ccc2c(S(=O)(=O)O)cc(S(=O)(=O)O)cc2c1 [NTS, Naphthalene trisulfonate]

SMILES: O=S(=O)([O-])c1cc(S(=O)(=O)[O-])c2[nH]c3c(S(=O)(=O)[O-])cc(S(=O)(=O)[O-])cc3c2c1.[Na+].[Na+].[Na+].[Na+] [RR506, Carbazole-1,3,6,8-tetrasulfonic acid, tetrasodium salt]
IC50 (DUSP5 PD(WT) [1]; pNPP substrate, 96-well plate, Triton X-100 at 0.1 %, read-out: IC50 from enzyme assay): 16000 ± 2000 µM
aggregation [2]: do not appear to form aggregates

SMILES: Cc1ccc(C(=O)Nc2ccc(S(=O)(=O)O)c3cc(S(=O)(=O)O)cc(S(=O)(=O)O)c23)cc1NC(=O)c1cccc(NC(=O)Nc2cccc(C(=O)Nc3cc(C(=O)Nc4ccc(S(=O)(=O)O)c5cc(S(=O)(=O)O)cc(S(=O)(=O)O)c45)ccc3C)c2)c1 [Suramin]
inhibition at 1 µM (DUSP5 PD(WT) [1]; 1 μM suramin, 5 mM pNPP, read-out: plateau level of inhibition with increasing Triton X-100): 30%
Ki (DUSP5 PD(WT) [1]; competitive versus pNPP, absence of Triton X-100): 24.6 µM and 25 µM
effect of detergent on inhibition (DUSP5 PD(WT) [1]): loss and loss of some inhibitory capability
effect of detergent on inhibition (DUSP5 PD(WT) [1]; listed as suramin): detergent decreases suramin inhibition
mode of inhibition (DUSP5 PD(WT) [1]; varied pNPP and inhibitor): competitive inhibitor; also recorded: competitive inhibition
concentration at which aggregates start forming [2]: around 25 μM
aggregation [2]: forms aggregates in vitro

SMILES: O=[N+]([O-])c1ccc(OP(=O)(O)O)cc1 [pNPP, p-nitrophenol phosphate]
Km (DUSP5 PD(WT) [1]; [4]): 7.6 ± 0.4 mM
Vmax (DUSP5 PD(WT) [1]; [4]): 1.35 ± 0.02 × 10^−3 μmol/min

SMILES: [Na+].[Na+].[Na+].[O]=[V]([O-])([O-])[O-] [sodium orthovanadate]
IC50 (DUSP5 PD(WT) [3]): 0.088 ± 0.008 µM
